# Results: patent US11260053B2, “Bile acid recycling inhibitors and satiogens for treatment of diabetes, obesity, and inflammatory gastrointestinal conditions” (Satiogen Pharmaceuticals, Inc., priority 2010, dated 2022)
# Read-outs that look alike come from different tables or passages of the source.
# Legend:
# [1] = test system: male db/db mice; test: In vivo assay for reduction in blood glucose levels (Example 7A); settings: for reduction in plasma glucose from baseline: after 6 hours, oral
# Experimental: Male db/db mice 6-7 weeks (approx 30 g) were fasted for 2 h. A combination of (−)-(3R,5R)-trans-3-butyl-3-ethyl-2,3,4,5-tetrahydro-7,8-dimethoxy-5-phenyl-1,4-benzothiazepine1,1-dioxide (Compound 100A) at doses of 0, 0.1, 1, 10, mg/kg in 10% of DMSO-water and 30 mg/kg sitagliptin (DPP-IV inhibitor) in a mixture of valine-pyrrolidine in water was administered orally to male db/db mice (n=7-10 per group). Blood sample (˜1 μl from tail for glucose level testing) was taken at t=−24 h, 0, 60, 180, 240, 300, 360 min and 24 h after administration.
# [2] = test system: diabetic db/db mice; test: Oral ASBTI with DPP-IV inhibitor versus subcutaneous exenatide, blood glucose (Example 9); format: in vivo
# [3] = test system: male db/db mice; test: In vivo assay for reduction in blood glucose levels (Example 7B); settings: for reduction in plasma glucose from baseline: after 6 hours, oral, male db/db mice
# Experimental: Male db/db mice 8-9 weeks (approx 40 g) were fasted for 2 h. […] Blood sample (˜1 μl from tail for glucose level testing) was taken at t=−24 h, 0, 1, 3, 4, 5, 6 h and 24 h after administration.
# [4] = test system: GLP-1; test: Plasma GLP-1 levels in normal rats after oral dosing (Example 8); format: in vivo
# Experimental: 12-week-old male HSD rats were fasted for 16 h and given oral dose of 0, 3, 30, 100 mg/kg of the ASBTI 1-[4-[4-[(4R,5R)-3,3-dibutyl-7-(dimethylamino)-2,3,4,5-tetrahydro-4-hydroxy-1,1-dioxido-1-benzothiepin-5-yl]phenoxy]butyl]4-aza-1-azoniabicyclo[2.2.2]octane methane sulfonate (Synthesized by Nanosyn Inc., CA, USA) or metformin (Control, 0, 3, 30, 100, 300 mg/kg) in saline and a dose of 30 mg/kg sitaglipin in a mixture of valine-pyrrolidine in water (n=5 per group). Blood samples in volume of 0.6 ml for each time point were taken from the caudal vein with a heparinized capillary tube 0, 1, 3 and 5 h after the administration of compounds and plasma GLP-1 level were determined. Aprotinin and 10 μl of DPP-IV inhibitor per ml of blood were used for blood sample preservation during 10 min centrifugation and for storage at −70° C. or below. GLP-1 (Active pM) was tested by Millipore ELISA Kits (Millipore Corporation, 290 Concord Road, Billerica, Mass.).
# [5] = test system: Sprague Dawley rats; settings: 500 mM sodium taurocholate gel, 3 mL per rectum, overnight-fasted rats, 6 hour period
# Experimental: Using a stainless steel dissolving vessel fitted with a propeller stirrer 1 gram of methyl cellulose is dissolved in 100 mL of purified water and stirred for 15 minutes. 5 syringes connected to gavage tubes are then each filled with 3 mL of the composition.
# The sodium taurocholate rectal gel described above was rectally administered to 6 conscious overnight-fasted subjects (e.g., Sprague Dawley rats) and the control rectal gel without the sodium taurocholate was rectally administered to 5 conscious overnight-fasted subjects (e.g., Sprague Dawley rats). Each rat was then exposed to pre-weighed food and the cumulative consumption of the food was determined over a 6 hour period by weighing the food after 30 minutes, 60 minutes, 120 minutes, 240 minutes and 360 minutes.
# [6] = test system: Sprague Dawley rats
# Experimental: Using a stainless steel dissolving vessel fitted with a propeller stirrer 1 gram of methyl cellulose is dissolved in 100 mL of purified water and stirred for 15 minutes. 12 syringes connected to gavage tubes are then each filled with 3 mL of the composition.
# A 4×4 Latin Square design is used to monitor the effect of the different concentration of taurocholate on the food uptake of overnight-fasted Sprague Dawley rats. Each concentration is tested in triplicate with four rats used per replicate.
# The ED50 for inhibition of food intake is obtained by plotting the normalizing the dose response for the anorectic effect of taurocholate to the control data as a log of taurocholate dose vs the percentage of control cumulative intake (FIG. 7).
# [7] = test system: obese diabetic humans; settings: rectal 0.66, 2.0, 6.66, 20.0 mmoles in 20 ml 1% carboxymethyl cellulose gel, after 100 mg sitagliptin
# Experimental: Studies were undertaken after an overnight fast following administration (8-10 hours prior to bile salt) of 100 mg sitagliptin, a DPP-4 inhibitor that protects GLP-1 from inactivation by proteolysis. […] The taurocholic acid was administered into the rectum by syringe in a total volume of 20 ml of 1% carboxymethyl cellulose gel. Each dose was administered on a different day with at least three days between doses.
smiles,measurement,setting,value
"CCCC[C@]1(CC)CS(=O)(=O)c2cc(OC)c(OC)cc2[C@@H](c2ccccc2)N1 (relative stereo) [Compound 100A, (−)-(3R,5R)-trans-3-butyl-3-ethyl-2,3,4,5-tetrahydro-7,8-dimethoxy-5-phenyl-1,4-benzothiazepine1,1-dioxide]",change in body weight,"[1]; 24 h after administration, FIG. 9",Weight loss
same,plasma glucose concentrations,"[1]; ASBTI alone, male db/db mice, FIG. 1",lowers plasma glucose concentrations
same,reduction in plasma glucose from baseline,"[1]; dose 01 mg/kg (so in the source) with 30 mg/kg sitagliptin, male db/db mice",5.6%
same,reduction in plasma glucose from baseline,"[1]; dose 1 mg/kg with 30 mg/kg sitagliptin, male db/db mice",15%
same,reduction in plasma glucose from baseline,"[1]; dose 10 mg/kg with 30 mg/kg sitagliptin, male db/db mice",42.3%
same,elevated blood glucose levels compared to control mice treated with sitagliptin alone or vehicle,"[1]; single oral administration in combination with 30 mg/kg sitagliptin, FIG. 1",dose-dependent reduction
same,reduction of plasma glucose levels,"[2]; 3 hours post-dose, oral 10 mg/kg in combination with 30 mg/kg sitagliptin",35%
"CCCCC1(CCCC)CS(=O)(=O)c2ccc(N(C)C)cc2[C@@H](c2ccc(OCCCC[N+]34CCN(CC3)CC4)cc2)[C@H]1O.CS(=O)(=O)[O-] [Compound 100B, 1-[4-[4-[(4R,5R)-3,3-dibutyl-7-(dimethylamino)-2,3,4,5-tetrahydro-4-hydroxy-1,1-dioxido-1-benzothiepin-5-yl]phenoxy]butyl]4-aza-1-azoniabicyclo[2.2.2]octane methane sulfonate salt]",change in body weight,"[3]; 24 h after administration, in combination with sitagliptin, FIG. 8",Weight loss
same,plasma glucose levels,"[3]; ASBTI alone, db/db mice, FIG. 4",lowers plasma glucose levels in dose dependent manner
same,reduction in plasma glucose from baseline,[3]; dose 3 mg/kg with 30 mg/kg sitagliptin,5.6%
same,reduction in plasma glucose from baseline,[3]; dose 30 mg/kg with 30 mg/kg sitagliptin,15%
same,reduction in plasma glucose from baseline,[3]; dose 100 mg/kg with 30 mg/kg sitagliptin,42.3%
same,elevated blood glucose levels compared to control mice treated with sitagliptin alone or vehicle,"[3]; single oral administration in combination with 30 mg/kg sitagliptin, FIG. 2",dose-dependent reduction
same,plasma GLP-1 levels,"[4]; ASBTI alone, oral 0, 3, 30, 100 mg/kg, FIG. 6, FIG. 7",elevation in GLP-1 levels in a dose-dependent manner
same,plasma GLP-1 levels,"[4]; ASBTI in combination with 30 mg/kg sitagliptin, oral, FIG. 6, FIG. 7",elevation in GLP-1 levels in a dose-dependent manner
same,blood glucose levels compared with exenatide,"[2]; 3 hours after dosing, oral, in combination with 30 mg/kg sitagliptin, FIG. 10",reduces blood glucose levels more than a single subcutaneous injection of 0.02 mg/kg exenatide
"CN(C)C(=N)N=C(N)N [metformin, reference compound]",plasma GLP-1 levels,"[4]; metformin in combination with 30 mg/kg sitagliptin, oral, FIG. 5",elevation in GLP-1 levels
"N[C@@H](CC(=O)N1CCn2c(nnc2C(F)(F)F)C1)Cc1cc(F)c(F)cc1F [sitagliptin, (3R)-3-amino-1-[9-(trifluoromethyl)-1,4,7,8-tetrazabicyclo[4.3.0]nona-6,8-dien-4-yl]-4-(2,4,5-trifluorophenyl)butan-1-one, reference compound]",reduction in plasma glucose from baseline,"[1]; dose 0 mg/kg of ASBTI with 30 mg/kg sitagliptin, male db/db mice",5.5%
same,reduction in plasma glucose from baseline,[3]; dose 0 mg/kg of ASBTI with 30 mg/kg sitagliptin,5.5%
"C[C@H](CCC(=O)NCCS(=O)(=O)O)[C@H]1CC[C@H]2[C@@H]3[C@H](O)C[C@@H]4C[C@H](O)CC[C@]4(C)[C@H]3C[C@H](O)[C@]12C [taurocholate, taurocholic acid]",cumulative food intake compared to gel alone,[5],reduced
same,cumulative food intake,"[6]; 50, 150, 500 mM taurocholate gels, 3 mL per rectum, overnight-fasted rats",dose dependently related to the quantity of taurocholate administered
same,ED50 for inhibition of food intake,[6]; 24 hour intake,7.2 mmol/rat
same,ED50 for inhibition of food intake,[6]; at 1 hour,1.6 mmol/rat
same,ED50 for inhibition of food intake,"[6]; at 1 hour, 3 mL doses per rectum",528 mM
same,time for which differences in food uptake are maintained,"[6]; rectal taurocholate gels, rats",at least 24 hours
same,circulating GLP-1 levels,[7],increase
same,circulating PYY levels,[7],increase
